Experimental data published in patent US5621102A, “Process for preparing enantiomerically pure xanthine derivatives” (Cell Therapeutics, Inc., priority 1995, dated 1997).

Tested on: lysophosphatidic acid acyl transferase (LPAAT)
Assay: in vitro inhibition of LPAAT in 3T3 Ras-transformed fibroblasts stimulated with IL-1β
Assay type: cell-based
Protocol: FIG. 17 illustrates a comparison of CT1501R, its S isomer CT1501S, and PTX on in vitro inhibition of lysophosphatidic acid acyl transferase (LPAAT), an enzyme involved in second messenger signaling. […] LPAAT activity was determined in 3T3 Ras-transformed fibroblasts stimulated with IL-1β.
A method described here permits differentiation of the various subspecies of PA and DAG based upon acyl chain composition. This can differentiate those compounds that activate (and inhibit activation of) the present second messenger pathway from other pathways, such as the classical PI pathway. The present second messenger pathway involves substrates with unsaturated fatty acids in the sn-2 position other than arachidonate and those sub species of PAPH and LPAAT that are not involved in normal cellular housekeeping functions that are part of the classical PI pathway. […]
One in vitro assay measures inhibition of the relevant enzymes lysophosphatidic acid acyltransferase (LPAAT) and phosphatidic acid phosphoryl hydrolase (PAPH). […] It is important to note that the assay method permits discrimination between various forms of PA and DAG so that those relevant to the pathway affected by the (R) or (S) compounds of the invention can be measured directly. […] Thus, the relevant unsaturated (non-arachidonic) PA and DAG subspecies may be detected. […]

For `C[C@@H](O)CCCCn1c(=O)c2c(ncn2C)n(C)c1=O` [CT1501R, (R)-1-(5-hydroxyhexyl)-3,7-dimethylxanthine], which “potency relative to racemic mixture (M1)” value is on record?
Its value is “two to three time more potent than the racemic mixture”.

What about the “inhibition of LPAAT enzyme activity” value (3T3 Ras-transformed fibroblasts stimulated with IL-1β, at IC50 concentrations achievable in a clinical setting) of the same compound?
The value was “significantly inhibited enzyme activity”.
